What was measured:
hT1R1/mT1R3 = target: T1, hT1R1/mT1R3 (Homo sapiens, UniProt Q7RTX1); experiment: mt-clytin-II Ca2+ luminescence, HEK293T; format: cell-based; settings: dose-response curve and 50 mM response, pH 7.4, no IMP; weak agonist
T1 construct: gene TAS1R1; mixed-species heteromer, full-length human T1R1 (841 residues) with mouse T1R3, pEAK10, HEK293T with rG15i2 and mt-apoclytin-II; with Taste receptor type 1 member 3 (Mus musculus)
T1 sequence (Q7RTX1 21-841): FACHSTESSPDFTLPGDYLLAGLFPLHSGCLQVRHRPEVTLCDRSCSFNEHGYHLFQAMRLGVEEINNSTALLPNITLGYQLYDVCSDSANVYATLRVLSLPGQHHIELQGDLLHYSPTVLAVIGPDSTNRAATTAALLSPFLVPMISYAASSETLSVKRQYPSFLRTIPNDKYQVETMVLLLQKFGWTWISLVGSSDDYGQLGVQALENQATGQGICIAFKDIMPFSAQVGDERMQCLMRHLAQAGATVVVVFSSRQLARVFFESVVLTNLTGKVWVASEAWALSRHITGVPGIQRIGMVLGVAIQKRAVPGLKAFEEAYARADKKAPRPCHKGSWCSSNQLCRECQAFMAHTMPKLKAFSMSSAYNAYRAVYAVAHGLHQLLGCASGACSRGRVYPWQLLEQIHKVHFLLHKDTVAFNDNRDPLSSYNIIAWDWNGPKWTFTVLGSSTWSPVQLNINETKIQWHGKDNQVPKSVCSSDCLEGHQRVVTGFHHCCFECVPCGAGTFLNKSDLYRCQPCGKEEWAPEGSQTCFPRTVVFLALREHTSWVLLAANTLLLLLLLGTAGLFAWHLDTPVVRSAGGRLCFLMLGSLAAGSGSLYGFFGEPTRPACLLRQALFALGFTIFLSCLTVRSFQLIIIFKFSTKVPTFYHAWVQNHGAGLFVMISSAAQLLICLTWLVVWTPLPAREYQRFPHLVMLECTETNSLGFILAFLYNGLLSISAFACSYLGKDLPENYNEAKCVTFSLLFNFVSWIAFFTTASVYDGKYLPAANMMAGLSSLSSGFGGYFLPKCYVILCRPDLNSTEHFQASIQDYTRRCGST
T1 sequence (Q925D8 21-858 partner): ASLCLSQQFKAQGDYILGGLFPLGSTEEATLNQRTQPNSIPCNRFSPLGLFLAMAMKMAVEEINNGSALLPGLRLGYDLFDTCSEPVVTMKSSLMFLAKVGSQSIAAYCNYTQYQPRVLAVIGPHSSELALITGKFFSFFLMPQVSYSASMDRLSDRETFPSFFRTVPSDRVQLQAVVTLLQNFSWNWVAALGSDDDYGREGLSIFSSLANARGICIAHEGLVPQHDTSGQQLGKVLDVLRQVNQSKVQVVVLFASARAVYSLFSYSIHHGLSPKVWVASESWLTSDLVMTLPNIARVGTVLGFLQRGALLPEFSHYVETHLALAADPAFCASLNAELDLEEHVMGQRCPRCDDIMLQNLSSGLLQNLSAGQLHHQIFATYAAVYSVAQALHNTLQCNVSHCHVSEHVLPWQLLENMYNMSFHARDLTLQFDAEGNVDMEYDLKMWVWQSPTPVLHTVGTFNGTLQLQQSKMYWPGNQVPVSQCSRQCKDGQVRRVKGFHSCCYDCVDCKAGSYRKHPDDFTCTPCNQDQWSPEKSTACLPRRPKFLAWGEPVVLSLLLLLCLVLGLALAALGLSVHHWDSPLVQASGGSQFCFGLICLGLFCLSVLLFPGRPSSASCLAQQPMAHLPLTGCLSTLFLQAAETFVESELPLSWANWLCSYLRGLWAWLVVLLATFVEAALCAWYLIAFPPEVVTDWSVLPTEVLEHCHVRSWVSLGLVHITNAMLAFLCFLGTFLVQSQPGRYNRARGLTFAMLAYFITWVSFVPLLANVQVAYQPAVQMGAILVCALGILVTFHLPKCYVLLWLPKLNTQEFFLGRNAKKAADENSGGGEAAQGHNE

[1] = target: T2, squirrel monkey T1R1 (with mT1R3) (Saimiri boliviensis, UniProt A0A2K6TN71); experiment: mt-clytin-II Ca2+ luminescence, HEK293T; format: cell-based; settings: dose-response curve only, pH 7.4, no IMP
T2 construct: full-length squirrel monkey T1R1 assembled from genomic exons (liver DNA); HEK293T with mouse T1R3; with Taste receptor type 1 member 3 (Mus musculus)
T2 sequence (A0A2K6TN71 21-841): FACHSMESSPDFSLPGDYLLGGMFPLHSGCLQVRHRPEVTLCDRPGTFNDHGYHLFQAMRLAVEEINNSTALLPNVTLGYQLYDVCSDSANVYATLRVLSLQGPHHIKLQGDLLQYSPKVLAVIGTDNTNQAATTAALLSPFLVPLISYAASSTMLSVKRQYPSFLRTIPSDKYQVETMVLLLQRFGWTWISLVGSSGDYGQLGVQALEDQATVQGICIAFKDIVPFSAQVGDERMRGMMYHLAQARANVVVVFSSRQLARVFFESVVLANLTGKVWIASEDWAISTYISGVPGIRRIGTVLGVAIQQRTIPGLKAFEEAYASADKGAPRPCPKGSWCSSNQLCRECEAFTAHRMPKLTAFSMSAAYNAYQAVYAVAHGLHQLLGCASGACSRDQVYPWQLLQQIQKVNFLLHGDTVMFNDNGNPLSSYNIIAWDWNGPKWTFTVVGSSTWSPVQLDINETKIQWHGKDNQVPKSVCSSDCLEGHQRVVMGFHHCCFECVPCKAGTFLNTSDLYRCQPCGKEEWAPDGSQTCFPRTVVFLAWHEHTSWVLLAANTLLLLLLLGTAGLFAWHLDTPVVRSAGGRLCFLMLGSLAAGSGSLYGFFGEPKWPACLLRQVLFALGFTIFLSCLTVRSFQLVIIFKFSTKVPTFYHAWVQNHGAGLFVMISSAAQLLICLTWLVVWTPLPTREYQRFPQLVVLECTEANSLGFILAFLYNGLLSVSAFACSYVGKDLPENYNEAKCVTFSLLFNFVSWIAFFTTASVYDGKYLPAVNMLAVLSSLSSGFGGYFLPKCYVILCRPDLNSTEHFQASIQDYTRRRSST
T2 sequence (Q925D8 21-858 partner): T1 sequence (Q925D8 21-858 partner)

baboon T1R1 (with mT1R3) = tested on: T3, baboon T1R1 (with mT1R3); settings: pH 7.4, rG15i2, no IMP; orthosteric site agonist
T3 construct: gene TAS1R1

[2] = tested on: T4, hT1R1(m.371–380) (with mT1R3); settings: pH 7.4, rG15i2, no IMP; orthosteric site agonist
T4 construct: gene TAS1R1

Compound: C[C@H](N)C(=O)O [L-Ala]
- mt-clytin-II Ca2+ luminescence, HEK293T (hT1R1/mT1R3): the dose-response curves of human (B), macaque (C), baboon (D)
- mt-clytin-II Ca2+ luminescence, HEK293T [1]: the squirrel monkey T1R1 demonstrated the greatest L-Ala potency among the four primate T1R1 receptors

Compound: N[C@@H](CCC(=O)O)C(=O)O [L-Glu]
- EC50 (baboon T1R1 (with mT1R3)): 1800 ± 400 µM
- EC50 [2]: 110 ± 10 µM

— article PMC3873546, “Two Distinct Determinants of Ligand Specificity in T1R1/T1R3 (the Umami Taste Receptor)” (The Journal of Biological Chemistry, 2013)
